Data reported in PMC7909954 (eLife, 2021).
Values joined by “and” are separate entries in the source; they are usually repeats but may differ in a detail not shown here. Identical values can stand only once. Like-named read-outs stand apart in the source and are kept apart here.

Legend:
rKOR [1] = molecular target: T1, rKOR (Rattus norvegicus, UniProt P34975)
mKOR [2] = molecular target: T2, mKOR (Mus musculus, UniProt P33534); test: biochemical
KOR [3] = molecular target: T3, KOR (Homo sapiens, UniProt P41145); settings: for Log RA cAMP hKOR / LogRA Tango hKOR: transduction coefficient log(T/KA)
T3 sequence (P41145 whole entry): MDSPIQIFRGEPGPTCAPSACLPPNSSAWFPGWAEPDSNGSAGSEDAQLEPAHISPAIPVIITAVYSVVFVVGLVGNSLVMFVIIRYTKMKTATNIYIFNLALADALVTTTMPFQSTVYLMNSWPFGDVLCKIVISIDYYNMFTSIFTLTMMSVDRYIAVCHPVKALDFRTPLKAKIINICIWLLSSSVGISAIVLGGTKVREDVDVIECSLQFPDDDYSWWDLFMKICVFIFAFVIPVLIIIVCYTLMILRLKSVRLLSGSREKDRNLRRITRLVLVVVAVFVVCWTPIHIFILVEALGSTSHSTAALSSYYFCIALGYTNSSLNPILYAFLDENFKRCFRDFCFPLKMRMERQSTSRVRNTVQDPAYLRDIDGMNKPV

DOR [4] = molecular target: T4, DOR (Homo sapiens, UniProt P41143); test: cell-based; settings: for EC50: Tango; for Emax: HTLA, read-out: Emax% arrestin recruitment hDOR
T4 sequence (P41143 whole entry): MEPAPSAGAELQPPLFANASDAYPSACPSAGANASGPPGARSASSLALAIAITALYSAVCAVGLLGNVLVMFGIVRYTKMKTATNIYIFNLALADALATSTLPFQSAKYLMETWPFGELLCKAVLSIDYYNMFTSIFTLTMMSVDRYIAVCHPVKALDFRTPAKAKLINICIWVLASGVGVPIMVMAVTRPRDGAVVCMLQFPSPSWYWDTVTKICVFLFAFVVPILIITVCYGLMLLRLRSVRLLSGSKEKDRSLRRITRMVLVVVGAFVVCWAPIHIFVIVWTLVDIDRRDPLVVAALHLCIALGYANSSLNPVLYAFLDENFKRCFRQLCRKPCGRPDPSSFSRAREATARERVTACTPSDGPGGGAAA

mKOR [5] = molecular target: T2, mKOR; test: biochemical; settings: for EC50: EC50 mKOR [35S]GTPγS, ± SEM; for Emax: read-out: Emax mKOR [35S]GTPγS
mMOR [6] = molecular target: T5, mMOR (Mus musculus, UniProt P42866); test: biochemical; settings: for EC50: EC50 mMOR [35S]GTPγS, ± SEM; for Emax: read-out: Emax mMOR [35S]GTPγS
T5 sequence (P42866 whole entry): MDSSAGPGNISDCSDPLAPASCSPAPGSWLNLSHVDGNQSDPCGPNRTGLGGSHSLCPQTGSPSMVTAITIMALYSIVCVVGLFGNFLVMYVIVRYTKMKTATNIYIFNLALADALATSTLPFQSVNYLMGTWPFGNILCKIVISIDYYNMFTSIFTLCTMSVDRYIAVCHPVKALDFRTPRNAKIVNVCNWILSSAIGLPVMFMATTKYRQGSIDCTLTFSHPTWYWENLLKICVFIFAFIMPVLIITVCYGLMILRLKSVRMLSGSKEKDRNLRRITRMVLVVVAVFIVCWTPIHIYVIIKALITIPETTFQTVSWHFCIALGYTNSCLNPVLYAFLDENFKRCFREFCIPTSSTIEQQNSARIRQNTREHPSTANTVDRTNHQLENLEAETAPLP

DOR [7] = molecular target: T4, DOR; test: cell-based; settings: for EC50: EC50 cAMP inhibition hDOR; for Emax: HEK-293T, read-out: Emax% cAMP inhibition hDOR
MOR [8] = molecular target: T6, MOR (Homo sapiens, UniProt P35372)
T6 sequence (P35372 whole entry): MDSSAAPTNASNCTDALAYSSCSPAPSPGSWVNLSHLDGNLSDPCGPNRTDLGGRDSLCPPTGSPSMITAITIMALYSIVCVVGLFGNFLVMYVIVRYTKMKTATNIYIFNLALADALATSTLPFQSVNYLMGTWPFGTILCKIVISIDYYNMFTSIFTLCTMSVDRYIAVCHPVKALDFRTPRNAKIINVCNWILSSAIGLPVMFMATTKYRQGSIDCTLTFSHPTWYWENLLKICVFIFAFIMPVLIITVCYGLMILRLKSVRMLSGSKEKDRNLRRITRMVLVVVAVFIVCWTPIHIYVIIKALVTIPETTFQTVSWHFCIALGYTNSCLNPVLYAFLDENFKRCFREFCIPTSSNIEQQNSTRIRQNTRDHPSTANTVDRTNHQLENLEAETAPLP

Y312W-hKOR [9] = molecular target: T7, Y312W-hKOR (Homo sapiens, UniProt P41145, Y312W); test: cell-based; settings: read-out: Emax% cAMP inhibition Y312W-hKOR
T7 sequence (P41145 whole entry Y312W): as the sequence (P41145 whole entry) above, with Y312W counted along it

rKOR [10] = molecular target: T1, rKOR; test: cell-based; settings: for Emax: HEK-293T, read-out: Emax% G protein activation (BRET) rKOR
KOR [11] = molecular target: T3, KOR; test: cell-based; settings: for Emax: HTLA, read-out: Emax% arrestin recruitment (Tango) hKOR
Y312W-hKOR [12] = molecular target: T7, Y312W-hKOR
mDOR [13] = molecular target: T8, mDOR (Mus musculus, UniProt P32300); test: cell-based; settings: for Emax: HEK-293T, read-out: Emax% G protein activation (BRET) mDOR
T8 sequence (P32300 whole entry): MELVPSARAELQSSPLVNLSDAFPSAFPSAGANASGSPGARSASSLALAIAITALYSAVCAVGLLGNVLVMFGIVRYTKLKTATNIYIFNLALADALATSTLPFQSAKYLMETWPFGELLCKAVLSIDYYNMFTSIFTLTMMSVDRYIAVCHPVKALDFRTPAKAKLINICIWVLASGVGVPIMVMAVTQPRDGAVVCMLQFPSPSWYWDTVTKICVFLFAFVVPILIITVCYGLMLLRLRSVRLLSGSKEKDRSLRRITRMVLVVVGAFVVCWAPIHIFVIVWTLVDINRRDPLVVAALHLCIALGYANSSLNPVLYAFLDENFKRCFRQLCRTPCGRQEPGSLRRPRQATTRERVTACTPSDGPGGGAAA

MOR [14] = molecular target: T6, MOR; test: cell-based
rKOR [15] = molecular target: T1, rKOR; test: cell-based; settings: HEK-293T, read-out: Emax% arrestin recruitment (BRET) rKOR
MOR [16] = molecular target: T6, MOR; test: cell-based; settings: for Emax: HEK-293T, read-out: Emax% cAMP inhibition hMOR
mMOR [17] = molecular target: T5, mMOR; test: cell-based; settings: for EC50: EC50 G protein activation (BRET) mMOR; for Emax: HEK-293T, read-out: Emax% G protein activation (BRET) mMOR
mDOR [18] = molecular target: T8, mDOR; test: cell-based
KOR [19] = molecular target: T3, KOR; test: cell-based; settings: for EC50: EC50 cAMP inhibition hKOR; for Emax: HEK-293T, read-out: Emax% cAMP inhibition hKOR
mDOR [20] = molecular target: T8, mDOR; test: biochemical; settings: read-out: Emax mDOR [35S]GTPγS
mMOR [21] = molecular target: T5, mMOR
Y312W-hKOR [22] = molecular target: T7, Y312W-hKOR; test: cell-based
mMOR [23] = molecular target: T5, mMOR; test: cell-based; parameters: expressed in transfected cells; host or cells: HEK-293T
mMOR [24] = molecular target: T5, mMOR; test: biochemical
mDOR [25] = molecular target: T8, mDOR; settings: binding assays
rKOR [26] = molecular target: T1, rKOR; settings: BRET, rodent receptors
MOR [27] = molecular target: T6, MOR; remark: listed apart in the source
[28] = test system: MOR KO, KOR KO and DOR KO mice; test: 55°C warm-water tail-withdrawal assay in opioid receptor knock out mice; assay type: in vivo, mouse
[29] = EC50 arrestin recruitment (Tango) hKOR
[30] = EC50 G protein activation (BRET) mDOR
[31] = DOR KO mice, 100 nmol i.c.v., 40 min, single mice and mean (n=8)
[32] = DOR KO mice, 100 nmol i.c.v., 110 min, single mice and mean (n=8)
[33] = MOR KO mice, 100 nmol i.c.v., 60 min, single mice and mean (n=8)
[34] = MOR KO mice, 100 nmol i.c.v., 70 min, single mice and mean (n=8)
[35] = MOR KO mice, 100 nmol i.c.v., 80 min, single mice and mean (n=8)
[36] = MP1207 30 nmol icv, MP1208 35 nmol icv

T2 sequence (P33534 whole entry): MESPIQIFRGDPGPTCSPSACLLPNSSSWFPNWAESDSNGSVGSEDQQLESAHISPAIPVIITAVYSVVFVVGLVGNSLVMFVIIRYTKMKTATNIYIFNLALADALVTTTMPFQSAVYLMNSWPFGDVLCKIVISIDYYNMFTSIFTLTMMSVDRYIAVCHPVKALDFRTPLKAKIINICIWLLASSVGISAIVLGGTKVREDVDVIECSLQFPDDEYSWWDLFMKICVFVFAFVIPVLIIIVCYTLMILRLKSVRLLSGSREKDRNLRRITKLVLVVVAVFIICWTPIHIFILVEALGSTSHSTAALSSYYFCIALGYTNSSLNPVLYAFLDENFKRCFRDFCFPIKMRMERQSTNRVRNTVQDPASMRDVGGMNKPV
T1 sequence (P34975 whole entry): as the sequence (P33534 whole entry) above, with D11E, S17A, S51P, A308V counted along it

Compound: O=C(N[C@@H]1CCC2C3Cc4ccc(O)c5c4[C@@]2(CCN3CC2CC2)C1O5)c1cccc(I)c1 (stereo partly drawn) [MP1202, N-((7R,12bS)−3-(Cyclopropylmethyl)−9-hydroxy-2,3,4,4a,5,6,7,7a-octahydro-1H-4,12-methanobenzofuro[3,2-e]isoquinolin-7-yl)−3-iodobenzamide]
- Log RA BRET-G rKOR (rKOR [1]): 9.906±0.088
- LogRA BRET-Arr rKOR (rKOR [1]): 8.791±0.171
- ΔΔlog RA (BRETG-BRETArr) rKOR (rKOR [1]): -0.399±0.27
- ΔlogRA BRET-G rKOR (rKOR [1]; vs U50,488h): 1.594±0.117
- ΔlogRA BRET-arr rKOR (rKOR [1]; vs U50,488h): 1.993±0.239
- Ki (mKOR [2]): 0.11 ± 0.064 nM
- ΔΔlog RA (cAMP-Tango) hKOR (KOR [3]): -0.19±0.072
- Log RA cAMP hKOR (KOR [3]): 11.88±0.050
- LogRA Tango hKOR (KOR [3]): 10.30±0.004
- ΔlogRA Tango hKOR (KOR [3]; vs U50,488h): 1.856±0.006
- ΔlogRA cAMP hKOR (KOR [3]; vs U50,488h): 1.66±0.072
- EC50 (DOR [4]; EC50 arrestin recruitment hDOR): 18.1 nM
- Emax (DOR [4]): 26 ± 3.1%
- EC50 (mKOR [5]): 0.13 ± 0.02 nM
- Emax (mKOR [5]): 94 ± 5%
- EC50 (mMOR [6]): 0.32 ± 0.03 nM
- Emax (mMOR [6]): 68 ± 1%
- EC50 (DOR [7]): 8.18 nM
- Emax (DOR [7]): 99 ± 2.2%
- Bias factor (cAMP-Tango) hMOR (MOR [8]): 31
- Log RA cAMP hMOR (MOR [8]): 9.99±0.012
- LogRA Tango hMOR (MOR [8]): 7.24±0.002
- ΔlogRA Tango hMOR (MOR [8]): 0.058±0.002
- ΔlogRA cAMP hMOR (MOR [8]): 1.55±0.016
- ΔΔlog RA (cAMP-Tango) hMOR (MOR [8]): 1.49±0.016
- Emax (Y312W-hKOR [9]): 101 ± 1.5%
- Emax (rKOR [10]): 104 ± 2%
- EC50 (KOR [11]; [29]): 0.0457 nM
- Emax (KOR [11]): 101 ± 1%
- Log RA cAMP Y312W-hKOR (Y312W-hKOR [12]): 10.63±0.005
- LogRA Tango Y312W-hKOR (Y312W-hKOR [12]): 8.091±0.051
- ΔΔlog RA (cAMP-Tango) Y312W-hKOR (Y312W-hKOR [12]): 1.53±0.073
- Bias factor (cAMP-Tango) Y312W-hKOR (Y312W-hKOR [12]; vs U50,488h): 34
- ΔlogRA Tango Y312W-hKOR (Y312W-hKOR [12]; vs U50,488h): 0.532±0.073
- ΔlogRA cAMP Y312W-hKOR (Y312W-hKOR [12]; vs U50,488h): 2.062±0.007
- EC50 (mDOR [13]; [30]): 7.03 nM
- Emax (mDOR [13]): 103 ± 4.6%
- EC50 (mDOR [13]; pEC50 G protein activation (BRET) mDOR, ± SEM): 7.94 nM
- EC50 (MOR [14]): 26.8 nM
- Emax (MOR [14]; HTLA, read-out: Emax% arrestin recruitment (Tango) hMOR): 53 ± 2%
- Emax (rKOR [15]): 77 ± 5%
- EC50 (MOR [16]; EC50 cAMP inhibition hMOR): 0.077 nM
- Emax (MOR [16]): 92 ± 1.4%
- EC50 (mMOR [17]): 0.63 nM
- Emax (mMOR [17]): 70%
- EC50 (mDOR [18]; EC50 arrestin recruitment (BRET) mDOR): 525 nM
- Emax (mDOR [18]; HEK-293T, read-out: Emax% arrestin recruitment (BRET) mDOR): 26 ± 2.3%
- EC50 (KOR [19]): 0.00139 nM
- Emax (KOR [19]): 97.9 ± 2.5%
- Emax (mDOR [20]): 71 ± 2%
- Emax% G protein activation (BRET) mMOR (mMOR [21]): 61±1.5%
- EC50 (Y312W-hKOR [22]): 3.4 nM
- Emax (Y312W-hKOR [22]; read-out: Emax% arrestin recruitment (Tango) Y312W-hKOR): 55 ± 2.6%
- EC50 (mMOR [23]): 3140 nM
- Emax% arrestin recruitment (BRET) mMOR (mMOR [23]): 53 ± 1.6%
- Emax (mMOR [23]; HEK-293T, read-out: Emax% arrestin recruitment (BRET) mMOR): 57%
- Ki (mMOR [24]): 0.071 ± 0.031 nM

Compound: N=C(N)NCc1cccc(C(=O)N[C@@H]2CCC3C4Cc5ccc(O)c6c5[C@@]3(CCN4CC3CC3)C2O6)c1 (stereo partly drawn) [MP1208, N-((7R,12bS)−3-(Cyclopropylmethyl)−9-hydroxy-2,3,4,4a,5,6,7,7a-octahydro-1H-4,12-methanobenzofuro[3,2-e]isoquinolin-7-yl)−3-(guanidinomethyl)benzamide]
- Ki (mKOR [2]): 0.28 ± 0.02 nM
- selectivity for MOR and KOR over DOR (mDOR [25]): more than 40 fold
- ΔΔlog RA (cAMP-Tango) hKOR (KOR [3]): 1.35±0.022
- Bias factor (cAMP-Tango) hKOR (KOR [3]; >1 G protein bias, <1 arrestin bias, vs U50,488h): 22
- Log RA cAMP hKOR (KOR [3]): 9.83±0.004
- LogRA Tango hKOR (KOR [3]): 7.447±0.020
- ΔlogRA Tango hKOR (KOR [3]; vs U50,488h): -0.697±0.022
- ΔlogRA cAMP hKOR (KOR [3]; vs U50,488h): 0.65±0.005
- EC50 (DOR [4]; EC50 arrestin recruitment hDOR): 3620 nM
- Emax (DOR [4]): 62 ± 16.7%
- EC50 (DOR [4]; pEC50 arrestin recruitment hDOR, ± SEM): 3160 nM
- EC50 (mKOR [5]): 1.4 nM and 1.36 nM
- Emax (mKOR [5]): 43 ± 0.8%
- EC50 (mMOR [6]): 1.1 nM and 1.13 nM
- Emax (mMOR [6]): 54 ± 0.7%
- EC50 (DOR [7]): 2.49 nM
- Emax (DOR [7]): 39 ± 1.8%
- Emax (Y312W-hKOR [9]): 97 ± 1%
- EC50 (rKOR [10]): 1.07 nM
- Emax (rKOR [10]): 40 ± 2.4%
- arrestin recruitment at rKOR (in words) (rKOR [26]): No recruitment of βarrestin-2
- EC50 (KOR [11]; [29]): 16.4 nM
- Emax (KOR [11]): 48 ± 2.4%
- EC50 (KOR [11]; pEC50 arrestin recruitment (Tango) hKOR, ± SEM): 16.2 nM
- EC50 (mDOR [13]; [30]): 26.6 nM
- Emax (mDOR [13]): 58 ± 3.3%
- arrestin recruitment at hMOR (in words) (MOR [27]): completely abolished
- Emax (MOR [16]): 42 ± 1.3%
- EC50 (mMOR [17]): 2.27 nM
- Emax (mMOR [17]): 41 ± 3%
- EC50 (KOR [19]): 0.14 nM
- Emax (KOR [19]): 96 ± 1.9%
- Emax (mDOR [20]): 10 to 15%
- 30 min (tail-withdrawal latency) ([28]; DOR KO mice, 100 nmol i.c.v., 30 min, single mice and mean (n=8)): 15 s and 8 s and 14.125 s
- 40 min (tail-withdrawal latency) [28, 31]: 15 s and 14.7 s and 12.1 s and 14.6 s
- %A-40 min (% antinociception) [28, 31]: 100% and 97.83% and 77.34% and 96.8962%
- %A-100 min (% antinociception) ([28]; DOR KO mice, 100 nmol i.c.v., 100 min, single mice and mean (n=8)): 0% and 3.7% and 0.72% and 6.25% and 1.334%
- 110 min (tail-withdrawal latency) [28, 32]: 1.4 s and 1.9 s and 1.3 s and 1.6 s and 1.5 s and 2.2 s and 1.5625 s
- %A-110 min (% antinociception) [28, 32]: 0% and 2.96% and 2.9% and 0.7325%
- 60 min (tail-withdrawal latency) [28, 33]: 1.3 s and 1.2 s and 1.5 s and 1.7 s and 1.4 s and 1.4375 s
- %A-60 min (% antinociception) [28, 33]: 0% and 2.17% and 3.62% and 2.16% and 1.446%
- 70 min (tail-withdrawal latency) [28, 34]: 1.3 s and 1.4 s and 1.8 s and 1.2 s and 1.35 s
- %A-70 min (% antinociception) [28, 34]: 0% and 0.72% and 2.94% and 0.7275%
- 80 min (tail-withdrawal latency) [28, 35]: 1.3 s and 1.1 s and 1.9 s and 1.2 s and 1.2875 s
- %A-80 min (% antinociception) [28, 35]: 0% and 5.07% and 0.72% and 0.7238%
- antinociception in DOR KO mice vs WT [28, 36]: remained intact
- antinociception in KOR KO mice vs WT [28, 36]: attenuated
- antinociception in MOR KO mice vs WT [28, 36]: attenuated
- arrestin recruitment at mMOR (in words) (mMOR [23]): No recruitment of βarrestin-2
- Ki (mMOR [24]): 0.34 ± 0.01 nM
